Series [1] in a line: Acid stability determination. The series is classed as physicochemical. The note with it: 0.01 M HCl, 50° C., 100 μM. On the procedure: A 100 μM solution of test compound was prepared by dilution of a 10 mM DMSO stock solution in a 0.01 M solution of HCl in deionized water. Immediately after mixing, an aliquot (100 μL) was sampled and analyzed by HPLC/UV. The area under the compound peak was determined and used as the time zero reference point. The remainder of the acid sample was incubated at 50° C. and samples were taken after 2, 4, and 24 hours of incubation. On a few occasions, samples were taken at 30 rather than 24 hours. These were analyzed by the same HPLC/UV method and the area of the peak corresponding to the test compound was measured. Percent remaining at a given time point was then calculated as the ratio of the area under the peak after incubation to that at time zero times 100. In those cases where a 30 hour time point was recorded, the percent remaining at 24 hours was obtained by interpolation of the percent remaining versus time curve assuming a unimolecular process, i.e. a monoexponential decay. Percent remaining after 24 hours incubation are presented in Table 5 below, where A corresponds to more than 60%, B is between 40 and 60%, C covers 20 to 40% and D means less than 20%.

Series [2] addresses HDAC3/NcoR2 (Homo sapiens (Human), UniProt O15379). Put plainly: HDAC enzyme inhibition assay (Fluor-de-Lys), HDAC3/NcoR2. The note with it: HDAC3/NcoR2, 2 hours pre-incubation. The format is biochemical. How it is done:
(§1) The HDAC activity inhibition assay was performed as follows to determine the ability of a test compound to inhibit HDAC enzymatic activity. Serial dilutions of HDAC inhibitors were prepared in HDAC assay buffer (25 mM Tris/HCl, pH 8.0, 137 mM NaCl, 2.7 mM KCl, 1 mM MgCl2, pH 8) in 96-well assay plates (Fisher scientific, #07-200-309) and were pre-incubated for 2 hours at room temperature in the presence of 125 μg/ml BSA and purified HDAC1 (BPS Bioscience, San Diego, Calif., #50051), HDAC2 (BPS Bioscience, #50053), or HDAC3/NcoR2 (BPS Bioscience, #50003) at concentrations of 1.25, 1.32, and 0.167 μg/mL, respectively. Following pre-incubation, Fluor-de-Lys™ substrate (Enzo Life Sciences, Plymouth Meeting, Pa., BML-KI104-0050) was added to a final concentration of 10 μM and plates were further incubated for 30 minutes at room temperature. The enzymatic reaction was stopped by addition of Trichostatin A (Sigma-Aldrich, St Louis, Mo., #T8552, final concentration: 100 nM) and trypsin (MP Biomedicals, Solon, Ohio, #02101179) was added to reach a final concentration of 100 μg/mL. After a 15 minute incubation at room temperature, fluorescence was recorded using a Spectramax M2 fluorometer (Molecular Devices, Sunnyvale, Calif.) with excitation at 365 nm and emission at 460 nm. IC50 values were calculated by using a sigmoidal dose-response (variable slope) equation in GraphPad Prism® 5 for Windows (GraphPad Software, La Jolla, Calif.). Results for selected compounds in the HDAC activity inhibition assay are presented in Table 5 (IC50 ranges: IA>20 μM, A<1 μM, 1<B<5 μM, 5<C<10 μM, 10<D<20 μM, ND: not determined).

Series [3] can be described thus: Hepatocyte stability and metabolism (parent remaining, acid and OPD formation). As to conditions: human hepatocytes; for % left 6H Hum hep: 5 μM; for OPD: OPD formation by LC-MS/MS after phenylglyoxal derivatisation. The series is classed as in vitro ADME. How it is done:
The inventors have found, however, that formula (I) compound metabolites are substantially free of OPD when formula (I) compounds are subjected to conditions intended to mimic in vivo metabolism pathways. As used herein, the term “substantially free of OPD” means that OPD was not detected by LC-MS/MS after (i) incubating a formula (I) compound with human, monkey, dog and rat hepatocytes and (ii) treating the metabolite milieu with an acidic solution of phenylglyoxal in an organic solvent (this addition leads to quantitative formation of 2-phenylquinoxaline, which can be easily quantified with a low lower limit of quantitation (LLOQ)). See the Examples section.
To assess the stability and metabolism of RGFP compounds and to quantify the metabolites in hepatocytes. This assay was designed to evaluate the metabolism of RGFP compounds, following their incubation with human, monkey, dog and rat hepatocytes by monitoring either parent drug disappearance or metabolite appearance using LC-MS/MS. The results are shown in Table 5 ((% Left in Hep: IA<10%, 50%<A, 50%>B>30%, 30%>C>10%, ND: not determined).
Procedure: Turn on the water-bath heater to 37° C. Take out the KHB buffer and make sure it is at room temp before use. Prepare 2.5 mM concentration of RGFP compound in DMSO stock. Add 10 μL of above DMSO stock to 2490 μL KHB buffer; final concentration of RGFP compound will be 10 μM. Pre-warm 45 ml InVitro HT Medium to 37° C. in a sterile 50 ml conical tube. Add 1.0 mL Torpedo Antibiotic Mix per 45 mL InVitro HT medium. Transfer 13 mL of warm HT medium with Antibiotic Mix into a 15 mL conical tube. Carefully remove the hepatocyte vials from liquid nitrogen (liquid phase). Immediately immerse the vial into a 37° C. water bath. Shake gently until the ice melts entirely. […] Immediately empty contents of the vial into 13 ml of pre-warmed InVitro HT Medium with antibiotics. Rinse the vial with the HT media just transferred the hepatocytes to, in order to ensure complete transfer. Centrifuge the cell suspension at 600 RPM for 5 minutes at room temperature. […] Add 1.0 ml of KHB (at room temperature) buffer to the tube of hepatocyte pellet. Loosen the cell pellet by gently swirling the centrifuge tube. Transfer 100 μL of above solution to a different tube and add 900 μL of KHB buffer to count the cells. Determine the total cell count and the number of viable cells using the Trypan Blue exclusion method. Once the cell count is obtained, multiply the number by 10 (attributing to the dilution factor). Add required volume of KHB buffer to the tube containing hepatocytes such that the final count will be 2 million cells/mL. Dispense 50 μL of 2 million cells/ml to a 96 well plate and then add 50 μl of DMSO stock to respective wells (such that, the concentration of RGFP compounds is 5 μM and number of cells are 100000 in each well). Place the plates on a shaker in a 37° C. incubator with 5% CO2. Separate plates for each time point are advisable (Time points: 0 h, 1 h, 2 h, and 6 h). After each time point, add 100 μL of quenching solution. Quenching solution is an acetonitrile solution containing RGFP531 (10 μM) internal standard, 0.1% formic acid and phenylglyoxol (400 μM). The formic acid and phenylglyoxal is used for the identification and quantification of OPD as mentioned above. Pipette up and down a few times to ensure a complete stop of reaction. Transfer all the solution into a 1.5 ml tube, vortex thoroughly, and centrifuge at 14000 RPM at 4° C. for 5 minutes to precipitate cell debris. Transfer the 150 μL of supernatant to vials for analysis on LC-MS/MS.
LC-MS/MS parameters for RGFP compounds and metabolites including OPD: LC-MS/MS Parameters for API 2000 QTrap: System: HPLC 1100; Column: Gemini C18, 5 μM 4.6×50 mm; Column Temp: Ambient; MS: API 2000 QTrap (MI mode); Mobile Phase A: HPLC water with 0.05% Formic Acid; Mobile Phase B: Acetonitrile with 0.05% Formic Acid.

A short description of series [4]: Brain penetration studies. The series is classed as in vivo. As to conditions: C57/BL6/J, mouse; mice, s.c. 5 or 50 mg/kg or i.v. 5 mg/kg; Cmax(brain)/Cmax(plasma); read-out: BPR (brain/plasma ratio). How it is done:
Test compounds were prepared at either 0.5 mg/ml or 5 mg/ml in 30% hydroxypropyl-β-cyclodextrin, 100 mM sodium acetate pH 5.5, 5% DMSO. C57/BL6/J mice were dosed s.c. at 5 mg/kg or 50 mg/kg, or i.v. at 5 mg/kg. Animals were euthanized at pre-dose, 5, 15, 30 min, 1, 2 and 4 hours post-dose and plasma and brain obtained. Three animals per dose per time points were used. The levels of compound in the plasma and brain were determined by standard LC/MS/MS methods. Brain/plasma ratio (BPR) was calculated as the ratio of the Cmax(brain)/Cmax(plasma). The results are shown in Table 5, where IA corresponds to a BPR less than 0.1, D is between 0.1 and 0.2, C is 0.2 to 0.5, B comprises 0.5 to 1 and A is greater than 1.

The target of series [5] is HDAC2 (Homo sapiens (Human), UniProt Q92769). Put plainly: HDAC enzyme inhibition assay (Fluor-de-Lys), HDAC2. The series is classed as biochemical. As to conditions: 2 hours pre-incubation. On the procedure: as §1
In series [6] the target is HDAC1 (Homo sapiens (Human), UniProt Q13547). Put plainly: HDAC enzyme inhibition assay (Fluor-de-Lys), HDAC1. The format is biochemical. The note with it: 2 hours pre-incubation. On the procedure:
as §1

For series [7] the following is noted: rats, subcutaneous, cited from earlier work.
Details of series [8]: dose or concentration left out as unconfirmed. The note with it: male rats, oral, 78 weeks, cited from earlier work.

The values that follow come from US10428028B2, “HDAC inhibitors” (BIOMARIN PHARMACEUTICAL INC., priority 2013, dated 2019).

Read-outs that look alike come from different tables or passages of the source.

In general, IC50 refers to the concentration needed to halve the response being measured.

HDAC2, sequence (Q92769 whole entry): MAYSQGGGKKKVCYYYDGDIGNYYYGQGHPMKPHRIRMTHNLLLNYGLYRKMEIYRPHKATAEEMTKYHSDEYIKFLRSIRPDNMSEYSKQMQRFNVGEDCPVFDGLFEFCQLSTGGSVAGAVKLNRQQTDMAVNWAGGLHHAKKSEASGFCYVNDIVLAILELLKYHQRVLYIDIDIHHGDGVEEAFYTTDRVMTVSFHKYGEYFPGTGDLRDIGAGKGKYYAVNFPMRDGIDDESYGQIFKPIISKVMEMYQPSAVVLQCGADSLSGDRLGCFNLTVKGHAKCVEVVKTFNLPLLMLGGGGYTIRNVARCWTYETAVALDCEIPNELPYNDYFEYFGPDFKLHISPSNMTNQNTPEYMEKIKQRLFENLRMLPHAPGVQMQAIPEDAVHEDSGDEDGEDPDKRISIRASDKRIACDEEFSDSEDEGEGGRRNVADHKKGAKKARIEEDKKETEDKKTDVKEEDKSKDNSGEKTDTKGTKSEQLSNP
HDAC1, sequence (Q13547 whole entry): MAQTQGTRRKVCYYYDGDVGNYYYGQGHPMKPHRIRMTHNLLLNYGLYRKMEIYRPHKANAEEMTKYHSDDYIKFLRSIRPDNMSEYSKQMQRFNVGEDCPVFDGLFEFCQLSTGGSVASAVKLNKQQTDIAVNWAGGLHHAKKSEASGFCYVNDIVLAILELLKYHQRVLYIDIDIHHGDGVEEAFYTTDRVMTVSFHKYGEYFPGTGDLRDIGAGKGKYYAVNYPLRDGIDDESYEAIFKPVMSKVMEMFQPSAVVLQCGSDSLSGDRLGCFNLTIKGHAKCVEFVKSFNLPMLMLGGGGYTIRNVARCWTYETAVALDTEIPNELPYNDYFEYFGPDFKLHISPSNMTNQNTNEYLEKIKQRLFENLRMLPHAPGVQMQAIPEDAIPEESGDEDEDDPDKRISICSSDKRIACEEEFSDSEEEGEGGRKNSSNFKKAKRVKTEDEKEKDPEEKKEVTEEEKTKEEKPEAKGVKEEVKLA
HDAC3/NcoR2, sequence (O15379 whole entry): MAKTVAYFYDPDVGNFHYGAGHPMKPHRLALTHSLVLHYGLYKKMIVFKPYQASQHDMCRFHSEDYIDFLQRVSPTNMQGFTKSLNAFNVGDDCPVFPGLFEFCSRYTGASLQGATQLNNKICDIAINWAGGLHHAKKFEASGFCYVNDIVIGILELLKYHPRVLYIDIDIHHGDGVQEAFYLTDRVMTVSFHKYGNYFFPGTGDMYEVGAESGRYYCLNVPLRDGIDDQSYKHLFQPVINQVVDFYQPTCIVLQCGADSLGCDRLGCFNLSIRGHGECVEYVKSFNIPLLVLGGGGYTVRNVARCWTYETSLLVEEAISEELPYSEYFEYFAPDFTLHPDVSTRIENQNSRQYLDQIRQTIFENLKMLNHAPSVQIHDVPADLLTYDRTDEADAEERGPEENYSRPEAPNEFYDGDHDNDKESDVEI
HDAC3/NcoR2, sequence (Q9Y618 395-489 partner): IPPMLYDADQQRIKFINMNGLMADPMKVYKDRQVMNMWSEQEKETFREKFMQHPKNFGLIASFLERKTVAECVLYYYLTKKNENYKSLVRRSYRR

Regarding `Nc1cc(F)ccc1NC(=O)c1ccc2c(cnn2Cc2ccc(F)c(F)c2)c1` [Compound A10], the “Acid Stability % Left 24 hr” value in series [1] is reported as “C (C covers 20 to 40%)”. The concentration for half-maximal inhibition (IC50) in series [2], in series [5] and in series [6] was less than 1000 nM in each case. Further, the “% left 6H Hum hep” value in series [3] is “C (30%>C>10%)”. The OPD entry in series [3] is given as “No OPD”. For the same compound, the Kp in series [4] was more than 1.

As to `Nc1ccccc1NC(=O)c1ccc2c(cnn2CC2CC2)c1` [Compound A11], the “Acid Stability % Left 24 hr” value in series [1] was “B (B is between 40 and 60%)”. The concentration for half-maximal inhibition (IC50) in series [2], in series [5] and in series [6] was less than 1000 nM each time. Besides, the “% left 6H Hum hep” value in series [3] is recorded as “B (50%>B>30%)”. Also, in series [3], the OPD result was “No OPD”. Also, the Kp in series [4] was 0.2 to 0.5.

`Nc1ccccc1N` [OPD, o-phenylenediamine]: the tumors entry in series [7] (45 mg/kg every second day for 11 months) and in series [7] (90 mg/kg every second day for 5 months) was “not detected” each time. In addition, the “rats with liver tumors” value in series [8] (8000 low dose) was 5 out of 17; in series [8] (16000 high dose), 5 out of 16.
